The structures appear in SMILES notation.

Among the data in patent US9957264B2 (Merck Sharp & Dohme Corp., priority 2013, dated 2018) are IC50 values, retold here.

Experiment [1] has as its target JAK2 (recombinant purified GST-tagged catalytic domain) (Homo sapiens (Human), UniProt O60674). The experiment can be described thus: Jak Biochemical HTRF Assay (JAK2). The note with it: [ATP] 8.5 μM.
For experiment [2], the target named is JAK1 (recombinant purified GST-tagged catalytic domain) (Homo sapiens (Human), UniProt P23458). The experiment can be described thus: Jak Biochemical HTRF Assay (JAK1). To be noted: [ATP] 31.8 μM. The essentials:
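Phosphorylation of a common biotinylated peptide by each catalytic domain is measured by HTRF. The ATP-started reaction runs 120 min at room temperature before EDTA quench and detection.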

Sequence of JAK1 (recombinant purified GST-tagged catalytic domain) (P23458 875-1153): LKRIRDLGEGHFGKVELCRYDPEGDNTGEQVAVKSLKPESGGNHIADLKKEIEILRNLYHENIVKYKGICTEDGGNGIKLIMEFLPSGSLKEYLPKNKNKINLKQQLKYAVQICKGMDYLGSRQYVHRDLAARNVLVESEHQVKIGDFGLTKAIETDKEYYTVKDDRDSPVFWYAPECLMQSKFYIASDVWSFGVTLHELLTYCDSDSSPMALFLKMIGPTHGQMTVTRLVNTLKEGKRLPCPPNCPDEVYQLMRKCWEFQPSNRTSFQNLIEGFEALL
Sequence of JAK2 (recombinant purified GST-tagged catalytic domain) (O60674 849-1124): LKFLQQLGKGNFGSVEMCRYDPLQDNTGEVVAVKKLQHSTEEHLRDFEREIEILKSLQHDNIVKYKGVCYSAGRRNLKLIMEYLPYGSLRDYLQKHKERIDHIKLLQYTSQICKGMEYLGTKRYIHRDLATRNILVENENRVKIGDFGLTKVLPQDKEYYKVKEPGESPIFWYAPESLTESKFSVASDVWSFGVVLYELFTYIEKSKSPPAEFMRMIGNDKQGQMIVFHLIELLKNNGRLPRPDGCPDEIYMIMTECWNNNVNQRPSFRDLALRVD

With `CN1Cc2cc(Nc3nn([C@]4(CC#N)CC[C@@H](N5CC(F)C5)CC4)c4cc[nH]c(=O)c34)ccc2S1(=O)=O` [Example 18-32], the IC50 in experiment [1] is 0.09 nM; in experiment [2], 0.04 nM.
`CC(C)(C)S(=O)(=O)c1ccc(Nc2nn([C@]3(CC#N)CCOC3)c3cc[nH]c(=O)c23)cc1` (single isomer, unassigned) [Example 5-250, (R or S)-2-(3-(3-((4-(tert-butylsulfonyl)phenyl)amino)-4-oxo-4,5-dihydro-1H-pyrazolo[4,3-c]pyridin-1-yl)tetrahydrofuran-3-yl)acetonitrile]: the values for the 50% inhibitory concentration (IC50) in experiment [1] and in experiment [2] were 12.1 nM and 4.34 nM, respectively.
Regarding `CN(C)S(=O)(=O)c1ccc(Nc2nn(C3(CC#N)CCN(C(=O)Oc4ccc(F)cc4)CC3)c3cc[nH]c(=O)c23)cc1` [Example 10-3, 4-fluorophenyl 4-(cyanomethyl)-4-(3-((4-(N,N-dimethylsulfamoyl)phenyl)amino)-4-oxo-4,5-dihydro-1H-pyrazolo[4,3-c]pyridin-1-yl)piperidine-1-carboxylate], the figures for the IC50 in experiment [1] and in experiment [2] were 0.97 nM and 0.27 nM, respectively.
As for `CC(c1ccc(Nc2nn([C@]3(CC#N)CC[C@@H](C(=O)OC(C)(C)C)OC3)c3cc[nH]c(=O)c23)cc1)N1CCCC1` (single isomer, unassigned) [Example 5-211, (2S,5S)-tert-butyl 5-(cyanomethyl)-5-(4-oxo-3-((4-((S or R)-1-(pyrrolidin-1-yl)ethyl)phenyl)amino)-4,5-dihydro-1H-pyrazolo [4,3-c]pyridin-1-yl) tetrahydro-2H-pyran-2-carboxylate], the values for the IC50 in experiment [1] and in experiment [2] were 0.12 nM and 0.19 nM, respectively.
For the compound `N#CC[C@]1(n2nc(Nc3ccc4c(c3)CN(C3CCN(CC(F)(F)F)CC3)S4(=O)=O)c3c(=O)[nH]ccc32)CCOC[C@H]1F` (single isomer, unassigned) [Example 5-278, 2-((3S,4S or 3R,4R)-4-(3-((1,1-dioxido-2-(1-(2,2,2-trifluoroethyl)piperidin-4-yl)-2,3-dihydrobenzo[d]isothiazol-5-yl)amino)-4-oxo-4,5-dihydro-1H-pyrazolo[4,3-c]pyridin-1-yl)-3-fluorotetrahydro-2H-pyran-4-yl)acetonitrile], the IC50 was 2.65 nM in experiment [1] and 0.2 nM in experiment [2].
In the case of `CN(C)S(=O)(=O)c1ccc(Nc2nn([C@@]3(CC#N)CCCOC3)c3cc[nH]c(=O)c23)cc1` [Example 5-29, (R)-4-((1-(3-(cyanomethyl)tetrahydro-2H-pyran-3-yl)-4-oxo-4,5-dihydro-1H-pyrazolo[4,3-c]pyridin-3-yl)amino)-N,N-dimethyl benzenesulfonamide], the IC50 in experiment [1] is 27.7 nM; in experiment [2] it was 13.5 nM.
In the case of `N#CC[C@]1(n2nc(Nc3ccc(C#N)cc3)c3c(=O)[nH]ccc32)CCOC1` (single isomer, unassigned) [Example 5-240, 4-({1-[(3S or 3R)-3-(cyanomethyl)tetrahydrofuran-3-yl]-4-oxo-4,5-dihydro-1H-pyrazolo[4,3-c]pyridin-3-yl}amino)benzonitrile], the IC50 turned out to be 79.9 nM in experiment [1] and 13 nM in experiment [2].
For the compound `Cc1cc(Nc2nn([C@@]3(CC#N)CCCC[C@H]3F)c3cc[nH]c(=O)c23)ccc1C(=O)N1CCSCC1` [Example 5-154, 2-((1R,2R)-2-fluoro-1-(3-((3-methyl-4-(thiomorpholine-4-carbonyl)phenyl)amino)-4-oxo-4,5-dihydro-1H-pyrazolo[4,3-c]pyridin-1-yl)cyclohexyl)acetonitrile], the values for the IC50 in experiment [1] and in experiment [2] were 0.08 nM and 0.09 nM, respectively.
Take `CC(C)(C)OC(=O)N1CCC(CC#N)(n2nc(Nc3ccc([C@@H](O)C(F)(F)F)cc3)c3c(=O)[nH]ccc32)CC1` (single isomer, unassigned) [Example 5-3, tert-butyl 4-(cyanomethyl)-4-[4-oxo-3-({4-[(1R or 1S)-2,2,2-trifluoro-1-hydroxyethyl]phenyl}amino)-4,5-dihydro-1H-pyrazolo[4,3-c]pyridin-1-yl]piperidine-1-carboxylate]: the results for the IC50 in experiment [1] and in experiment [2] were 1.11 nM and 0.43 nM, respectively.
For `CN(C)[C@H]1CC[C@@](CC#N)(n2nc(Nc3ccc4c(c3)CN(C(C)(C)C)S4(=O)=O)c3c(=O)[nH]ccc32)CC1` [Example 18-38, Cis 2-(1-(3-((2-(tert-butyl)-1,1-dioxido-2,3-dihydrobenzo[d]isothiazol-5-yl)amino)-4-oxo-4,5-dihydro-1H-pyrazolo[4,3-c]pyridin-1-yl)-4-(dimethylamino)cyclohexyl)acetonitrile], the 50% inhibitory concentration (IC50) is 211 nM in experiment [1] and 16.1 nM in experiment [2].
In the case of `N#CC[C@@]1(n2nc(Nc3ccc4c(c3)CN(C3CCCC3)C4=O)c3c(=O)[nH]ccc32)CCCOC1` [Example 5-197, [(3S)-3-{3-[(2-cyclopentyl-1-oxo-2,3-dihydro-1H-isoindol-5-yl)amino]-4-oxo-4,5-dihydro-1H-pyrazolo[4,3-c]pyridin-1-yl}tetrahydro-2H-pyran-3-yl]acetonitrile], the IC50 worked out at 1.13 nM in experiment [1] and 0.13 nM in experiment [2].
For `Cc1nc2ccc(Nc3nn(C4(CC#N)CCCOC4)c4cc[nH]c(=O)c34)cc2s1` (stereo in doubt) [Example 21-5, [(3S)-3-{3-[(2-methyl-1,3-benzothiazol-6-yl)amino]-4-oxo-4,5-dihydro-1H-pyrazolo[4,3-c]pyridin-1-yl}tetrahydro-2H-pyran-3-yl]acetonitrile], in that order: 1.32 nM and 0.09 nM.
On to `N#CC[C@@]1(n2nc(Nc3ccc(S(=O)(=O)C4CCCC4)cc3)c3c(=O)[nH]ccc32)CCCOC1` [Example 5-191, [(3S)-3-(3-{[4-(cyclopentylsulfonyl)phenyl]amino}-4-oxo-4,5-dihydro-1H-pyrazolo[4,3-c]pyridin-1-yl)tetrahydro-2H-pyran-3-yl]acetonitrile], for which the IC50 in experiment [1] amounted to 0.52 nM; in experiment [2], 0.16 nM.
Consider `CC1(C)CCCN1S(=O)(=O)c1ccc(Nc2nn([C@]3(CC#N)CCCOC3)c3cc[nH]c(=O)c23)cc1` [Example 5-107, {(3S)-3-[3-({4-[(2,2-dimethylpyrrolidin-1-yl)sulfonyl]phenyl}amino)-4-oxo-4,5-dihydro-1H-pyrazolo[4,3-c]pyridin-1-yl]tetrahydro-2H-pyran-3-yl} acetonitrile], for which the values for the IC50 in experiment [1] and in experiment [2] were 0.33 nM and 0.2 nM, respectively.
With `N#CC[C@@]1(n2nc(Nc3ccc([C@]4(C(F)(F)F)CCCCN4)cc3)c3c(=O)[nH]ccc32)CCOC[C@@H]1F` (single isomer, unassigned) [Example 5-265, 2-((3R,4R or 3S,4S)-3-fluoro-4-(4-oxo-3-((4-((S or R)-2-(trifluoromethyl)piperidin-2-yl)phenyl)amino)-4,5-dihydro-1H-pyrazolo[4,3-c]pyridin-1-yl)tetrahydro-2H-pyran-4-yl)acetonitrile], the IC50 in experiment [1] turned out to be 0.04 nM; in experiment [2], 0.05 nM.
Regarding `CC(C)(C)OC(=O)[C@@H]1CC[C@@](CC#N)(n2nc(Nc3ccc(C4(C(F)(F)F)CCNC4)cc3)c3c(=O)[nH]ccc32)CO1` (single isomer, unassigned) [Example 5-285, (2S,5S)-tert-butyl 5-(cyanomethyl)-5-(4-oxo-3-((4-((R or S)-3-(trifluoromethyl)pyrrolidin-3-yl)phenyl)amino)-4,5-dihydro-1H-pyrazolo[4,3-c]pyridin-1-yl)tetrahydro-2H-pyran-2-carboxylate], the values for the IC50 in experiment [1] and in experiment [2] were 0.21 nM and 0.15 nM, respectively.
